# pIC50: −log10 of the molar value.
# What was measured:
# [1] = system: Varicella Zoster Virus (VZV); test: VZV plaque reduction assay in monolayers of MRC5 cells; assay type: cell-based; details: MRC5 cells (human embryonic lung), read-out: ID₅₀(µm) VZV
# Protocol: Varicella Zoster Virus (VZV) is assayed in monolayers of MRC5 cells (human embryonic lung) in multiwell trays. Activity of compounds is determined in the plaque reduction assay, in which a cell monolayer is infected with a suspension of VZV. A range of concentrations of the compound to be tested (of known molarity) is then incorporated into the cell monolayer. Plaque numbers of each concentration are expressed as percentage of the control and a dose-response curve is drawn. From this curve the 50% inhibitory concentration (IC₅₀) is estimated.
# Vero cells = test: Cell toxicity, cell growth inhibition assay (MTT uptake); assay type: cell-based; details: 50% inhibition of cell viability at 96 hours
# Protocol: Cell toxicity is assessed in cell growth inhibition assay. Subconfluent cultures of Vero cells grown on 96-well microtiter dishes are exposed to different dilutions of drug, and cell viability determined daily on replicate cultures using uptake of a tetrazolium dye (MTT). The concentration required for a 50% inhibition of cell vaibility at 96 hours is termed CCID₅₀.
# [2] = Determination of oral bioavailability by urinary recovery as parent compound; details: gavage, 50 mg/kg; urine collected for 24 and 48 hours post-dose
# Protocol: Long Evans Rats were administered the compound to be tested by gavage at a dose of 50 mg/kg. The urine was collected for 24 and 48 hours post-dose, ultrafiltered, and analysed by reverse-phase high-pressure liquid chromatography. The oral bioavailability of the compound was expressed as the percent of the dose excreted in the urine as the parent unesterified compound.
SMILES,pIC50 [1],CCID₅₀ (Vero cells),Urinary Recovery (% of dose) as parent compound [2]
"CC#Cc1cn([C@@H]2O[C@H](COC(=O)[C@@H](N)C(C)C)[C@@H](O)[C@@H]2O)c(=O)[nH]c1=O [Example 20, 5-Prop-1-ynyl-1-(5-0-L-valyl-β-D-arabinofuranosyl)uracil]",> 6.00,>500,35.90 % of dose
"CC#Cc1cn([C@@H]2O[C@H](COC(=O)C(C)C)[C@@H](O)[C@@H]2O)c(=O)[nH]c1=O [Example 1, 1-(5-0-Isobutyryl-β-D-arabinofuranosyl)-5-prop-1-ynyluracil]",–,–,40.35 % of dose
